Test in all cases: NCI tumour cell line growth inhibition, 48 h
For assay [1], the system named is CAKI-1 renal.
Assay [2] has as its system OVCAR-8 ovarian.
The subject of assay [3] is SK-MEL-5 melanoma.
The test system of assay [4] is MDA-MB-231 breast.
Assay [5] deals with OVCAR-3 ovarian.
The subject of assay [6] is SK-MEL-28 melanoma.
Assay [7] has as its system UO-31 renal.
The test system of assay [8] is HT29 colon.
Assay [9] concerns A549 NSCLC.
Assay [10] deals with COLO 205 colon.

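Cultured in 96-well plates, cells were exposed to test compound for 48 hours across five concentrations. GI50: concentration for 50% inhibition of growth. TGI is the concentration that stops growth completely.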 Some results are limits rather than exact numbers.

In the case of `O=[N+]([O-])c1cc(F)c2cccnc2c1O`, the GI50 in assay [1] was 3.82 µM; in assay [2], 11.3 µM; in assay [3], 16.5 µM; in assay [4] it was 25.8 µM; in assay [5], 3.93 µM; in [6] it was 21.2 µM. Also, the GI50 in assay [7] was 2.34 µM; in assay [8], 4.55 µM; in assay [9], 6.94 µM; in assay [10] it was 16.2 µM. Further, the TGI was 25.8 µM in [1]; more than 100 µM in assay [2]; 73.7 µM in assay [3]; more than 100 µM in assay [4]; more than 100 µM in assay [5]; more than 100 µM in assay [6]. Further, the TGI in assay [7] was 18.2 µM; in [8] it was 20.7 µM; in [9] it was more than 100 µM; in assay [10] it was 54.2 µM.
Consider `O=C(Nc1ccc(I)cc1F)c1cc(I)ccc1O`, for which the GI50 in assay [1] was 0.492 µM; in assay [2], 0.802 µM; in assay [3], 0.285 µM; in assay [4] it was 0.639 µM; in assay [5], 0.714 µM; in [6] it was 0.435 µM. Further, the GI50 in assay [7] is 0.535 µM; in [8], 3.71 µM; in [9], 1.15 µM; in [10] it was 7.17 µM. Moreover, the TGI in assay [1] is 4.11 µM; in [2], more than 100 µM; in assay [3], 0.807 µM; in [4], 2.64 µM; in assay [5] it was more than 100 µM; in [6], 2.84 µM. In addition, the TGI is 2.22 µM in [7], more than 100 µM in [8], more than 100 µM in assay [9] and 24 µM in [10].
With `CCCn1c(N)c(C(=O)CNc2ccc(I)cc2)c(=O)[nH]c1=O`, the GI50 was 6.53 µM in assay [1]; 4.72 µM in assay [2]; 0.861 µM in assay [3]; 24.5 µM in assay [4]; more than 48.4 µM in [5]; more than 100 µM in assay [6]. The results for the GI50 in assay [8] and in assay [9] were 1.23 µM and 2.1 µM, respectively. Also, the TGI in assay [1], in assay [2], in assay [3], in [4], in assay [5] and in [6] was more than 100 µM throughout. In addition, the TGI in assay [7], in assay [8], in assay [9] and in assay [10] was more than 100 µM throughout.
For the compound `CCOC(=O)c1ccccc1-c1c2ccc(=[N+](C)C)cc-2oc2cc(N(C)C)ccc12`, the GI50 was 0.691 µM in assay [1]; 0.195 µM in assay [2]; 0.205 µM in assay [3]; 0.301 µM in [4]; 0.209 µM in assay [5]; 0.687 µM in assay [6]. In addition, the GI50 in [7] is 2.18 µM; in assay [8], 0.211 µM; in assay [9], 0.256 µM; in assay [10] it was 0.143 µM. Besides, the TGI in [1] was 4.64 µM; in assay [2] it was more than 22.8 µM; in assay [3], 0.632 µM; in assay [4], 10.7 µM; in [5] it was 13.4 µM; in [6], 13 µM. For the same compound, the TGI in assay [7] is 8.1 µM; in assay [9] it was more than 38.7 µM; in assay [10] it was 0.43 µM.
As to `Cc1c(C(=O)O[C@H]2[C@@H]3[C@H](C)CC[C@H]3[C@]3(C)O[C@@]2(C2CCCCC2)C[C@H]3OC(=O)CO)ccc2ccccc12`, the GI50 was 0.244 µM in [1]; 6.64 µM in assay [2]; 7.28 µM in assay [3]; 8 µM in [4]; 7.57 µM in assay [5]; 8.44 µM in [6]. Also, the GI50 is 0.408 µM in [7], 7.07 µM in assay [8], 7.11 µM in assay [9] and 9.2 µM in assay [10]. For the same compound, the TGI worked out at 6.82 µM in assay [1]; 13.8 µM in [2]; 13.8 µM in assay [3]; 16.7 µM in assay [4]; 14.4 µM in assay [5]; 15.8 µM in assay [6]. For the same compound, the TGI was 7.96 µM in assay [7], 14.2 µM in assay [8], 13.7 µM in assay [9] and 17.5 µM in [10].
Consider `COc1ccc(/C=N/N=C(\[O-])c2ccncc2)cc1F.COc1ccc(/C=N\N=C(/[O-])c2ccncc2)cc1F.[Cu+2]`, for which the GI50 in assay [1] was 38.6 µM; in [2], 13.8 µM; in assay [3] it was 26 µM; in assay [4] it was 32.4 µM; in [5], 27.3 µM; in [6], 37.9 µM. Further, the GI50 in assay [7] was 64.4 µM; in assay [8], 24.1 µM; in [9] it was 27.3 µM; in [10], 19.7 µM. The TGI was more than 100 µM in [1]; 27.5 µM in [2]; 80.4 µM in assay [3]; more than 100 µM in assay [4]; 82.9 µM in assay [5]; more than 100 µM in assay [6]. Also, the TGI in [7] was more than 100 µM; in assay [8] it was 69 µM; in [9], more than 100 µM; in assay [10], 42.2 µM.
For `O=S(=O)(O)ONC1=NCCN1`, the GI50 in assay [1], in assay [2], in assay [3], in assay [4], in [5] and in assay [6] was more than 100 µM in each case. The GI50 in assay [7] was 29.1 µM; in [8], 58.1 µM; in assay [9] it was more than 100 µM; in [10], more than 100 µM. The TGI in [1], in [2], in [3], in [4], in assay [5] and in [6] was more than 100 µM in each case. The TGI in assay [7], in assay [8], in [9] and in assay [10] was more than 100 µM in each case.

These data come from PubChem BioAssay (NCI).
